Here are results for one molecule from patent US12466816B2, “Fused cyclic compound capable of degrading protein and use thereof” (Medshine Discovery Inc., priority 2019, dated 2025).

Format in all cases: cell-based
The test system of one test is Hep3B cells. In words: Sensitivity of wild-type versus CRBN KO cells to WX106 (CCK-8). The note with it: 10 μM, 72 h. The method, then:
(§1) The sgRNA sequence targeting CRBN was inserted into lenti Crispr V2 plasmid, the virus was co-packaged with the packaging vectors psPAX2 and pVSVG, and the cells were infected; screening was performed with puromycin (Invitrogen, A1113803) and the knockout of CRBN was identified by Western blot; finally, the cell growth was detected to calculate the survival rate.
WX106 (10 μM) was added to wild-type Hep3B cells and Hep3B CRBN KO (knockout) hybrid clone cells, respectively, and cell proliferation was detected by CCK-8 after 72 h.

The next test has as its system Hep3B and SNU182 cells. In words: Growth curves of stable CRBN knockout cell lines (pool). The note with it: 10 μM. The method, then: as §1
Stable CRBN knockout cell lines (pool) were established in Hep3B and SNU182 cells, respectively, and treated with WX106 (10 μM) or solvent; the growth of cells was detected at different time points and the growth curves were drawn.

The next test addresses T1, GSPT1 (Homo sapiens, UniProt P15170).
T1 construct: endogenous in cells; host or cells: MOLT-4
In words: Detection of protein degradation by the drug (Western blot). The following applies: MOLT-4 cells.

The target in a further test is T2, CK1α (Homo sapiens, UniProt P48729).
T2 construct: endogenous in cells; host or cells: MOLT-4
Described as above. The note with it: MOLT-4 cells.

The target of a further test is T3, Wee1-CRBN complex (Homo sapiens, UniProt P30291+Q96SW2).
T3 construct: expressed in transfected cells; host or cells: 293T
In words: Co-immunoprecipitation. The note with it: 293T cells. As for the experimental part: The plasmid was transfected into 293T cells. After 24 hours, the compound WX106 was added to treat the cells for a certain period of time. The cells were lysed with NETN lysis buffer (150 mM NaCl, 50 mM Tris-HCl of pH 8.0, 1% NP40), followed by incubation with agarose beads (EZview™ Red anti-HA affinity gel, Sigma, E6779; anti-FLAG® M2 affinity gel, Sigma, A2220) and lysis buffer for 2 hours. The beads were washed 4 times with lysis buffer, loading buffer (100 mM Tris-HCl, 4% SDS, 0.05% BPB, 2% β-mercaptoethanol, 20% glycerol) was added and detection was performed using Western blot.
According to FIG. 24, HA CRBN (CRBN was overexpressed in cells by transfection technology; HA is a polypeptide and CRBN fusion expression; CRBN refers to endogenous CRBN in cells) and FLAG Wee1 (Wee1 was overexpressed in cells by transfection technology; FLAG is a polypeptide and CRBN fusion expression; Wee1 refers to endogenous Wee1 in cells) were overexpressed in 293T cells [and left to stand] for 24 hours after transfection; thereafter, the cells were treated with 20 μM MG132 or 10 μM WX106 1 h and 2 h before they were harvested for Co-IP (co-immunoprecipitation) assay, respectively. […] According to FIG. 26, overexpressed CRBN and endogenous Wee1 were used for co-immunoprecipitation. […] According to FIG. 27, different Wee1 fragments were cloned separately and subjected to Co-IP with CRBN.

In another test the target is CRBN (Homo sapiens, UniProt Q96SW2). In words: Protein degradation competition experiment (CC885-induced GSPT1 degradation). Set-up: endogenous in cells; host or cells: MOLT-4. The following applies: MOLT-4 cells, co-treated with 10 nM CC885, 4 hours, Western blot. The method, then: MOLT-4 cells were co-treated with 0.1, 1 and 10 μM of WX106 and 10 nM of CC885 for 4 hours, and the protein level of GSPT1 was then detected by Western blot, with Poma (Pomalidomide, Selleck, S1567) acting as the positive control in the experiment. Cells were collected and denatured in protein loading buffer (50 mM Tris-HCL 2% SDS, 0.025% BPB, 1% β-mercaptoethanol, 10% glycerol) at 98° C. for 10 min. Proteins were separated by SDS-PAGE and transferred to a PVDF membrane (Millipore, IPVH00010), blocked with 5% skim milk (dissolved in TBST buffer), incubated with a primary antibody overnight at 4° C., and then incubated with a secondary antibody (Anti-rabbit IgG, HRP-linked Antibody, Cell Signaling, 7074S) at room temperature for 1 hour, and the bands on the membrane were detected by chemiluminescence (ECL chemiluminescence kit, Beyotime Biotechnology, P0018AM).
For orientation: In western blotting, separated proteins are transferred to a membrane and probed.

The target of test [1] is T4, Wee1 (Homo sapiens, UniProt P30291). In words: Label-free quantitative mass spectrometry for proteomic analysis. Set-up: endogenous in cells; host or cells: MOLT-4. The note with it: MOLT-4, 10 μM WX106 (10 μM MG132 where added), 6 hours, replicates. As for the experimental part:
There are three treatment methods for the selected MOLT-4 cells; one is to directly add DMSO as a control, the other is to add 10 μM WX106, and the third is to add 10 μM WX106 and 10 μM MG132 (proteasome inhibitor; APEXBIO, A2585 and MG132 are capable of blocking ubiquitin-mediated protein degradation). Two replicates were prepared for the 10 μM WX106 plus 10 μM MG132 group, and three replicates were prepared for the DMSO control group and 10 μM WX106 administration group, respectively. The drug treatment time for MOLT-4 was 6 hours. Mass spectrometry samples were prepared based on the basic steps of urea cleavage, reductive alkylation, desalting, and lyophilization. The prepared samples were subjected to two-hour gradient analysis on a Q Exactive HF mass spectrometer, followed by data analysis.

In test [2] the target is T4, Wee1. In words: Detection of protein degradation by the drug (Western blot). The note with it: 6 hours. Set-up: endogenous in cells; host or cells: MOLT-4, U87-MG. As for the experimental part: Cells were seeded in 6-well plates at a density of about 70%, and the compound WX106 of different concentrations (concentrations shown in the accompanying drawings) were added for 6 hours of treatment, and then the whole-cell lysates were collected for target protein detection. The antibody used was: (Wee1 (D10D2) Rabbit mAb, Cell Signaling, 13084S). To investigate whether drug-induced protein degradation occurs via the ubiquitin pathway, MG132 was used to block ubiquitin-mediated protein degradation. This method was also applied to 293T, MOLT-4, U87-MG, HCT116, and LN-229.
FIG. 13 and FIG. 14 show the effect of WX106 on Wee1 protein expression in MOLT-4 cells.

Turning to `Cc1ccc(C(=O)Nc2ccc3occ(C4CCC(=O)NC4=O)c3c2)cc1Cl` (centres unmarked) [WX106], the “sensitivity of cells to WX106 after CRBN knockout” value in the test on Hep3B cells is reported as “significantly reduced”. In addition, the “sensitivity of cells with normal CRBN expression (growth curve)” value in the test with Hep3B and SNU182 cells (Hep3B and SNU182) was “very sensitive”. Besides, the “growth rate of low-CRBN-expression cells compared with the solvent group” value in the test with Hep3B and SNU182 cells (Hep3B and SNU182 CRBN knockout pools) is on record as “no significant difference”. Also, at GSPT1, the “pro-degradation effect on GSPT1” value is “no significant pro-degradation effect”. Also, the “pro-degradation effect on CK1α” value at CK1α was “no significant pro-degradation effect”. For the same molecule, the “complex formed by Wee1 and CRBN (HA CRBN and FLAG Wee1 overexpressed)” value on Wee1-CRBN complex (10 μM WX106, 20 μM MG132, FIG. 24) is “significantly increased”. The “complex formed by Wee1 and CRBN (overexpressed CRBN and endogenous Wee1)” value on Wee1-CRBN complex (FIG. 26) was “significantly increased”. The “effect on degradation of GSPT1 induced by CC885” value on CRBN was “reversed”. Moreover, the “Wee1 LFQ intensity” value at Wee1 [1] is listed as 0. For the same molecule, the “pro-degradation effect on Wee1” value on Wee1 [2] (HCT116 cells) is “weak pro-degradation effect”; on Wee1 [2] (U87-MG cells), “significant pro-degradation effect”.
